From patent US20040038958A1, “Topical treatment of skin diseases” (priority 2002, published 2004)
“Also recorded” adds a separate entry of the source.

Assays:
[1] = tested on: mice sensitized to TDI (long term exposure); assay: TDI induced ear swelling after long term (120 days) repeated exposure sensitization; format: in vivo; conditions: 120 days sensitization, AWD 12-281 3% 1 h after challenge
Protocol: FIG. 4: Effect of AWD 12-281 on TDI induced ear swelling in mice sensitized to TDI using a long term (120 days) repeated exposure sensitization paradigm. Bars represent ear swelling 1, 5 and 24 h after TDI challenge.
Furthermore, an experiment was carried out to obtain information on the therapeutic effects of AWD 12-281 in a model of long term exposure to TDI. Thus 10 mice were treated with 100 μl 0.5% TDI on the abdominal skin in intervals of 10 days for 120 days. Ten days after the last abdominal TDI treatment, mice were challenged on the left ear with 20 μl 0.5% TDI, split in 10 μl onto the outer and inner surface of the ear, respectively. One hour after TDI challenge 5 mice were treated with AWD 12-281 (3%), 5 mice were sham treated. Before as well as 1, 5 and 24 h after challenge, the ear thickness was measured.

[2] = tested on: human cells from nasal polyps; conditions: antigen stimulated; Kuss et al., 2002; cited from earlier work
human eosinophils = conditions: in vitro; Ezeamuzie, 2001; cited from earlier work

O=C(Nc1c(Cl)cncc1Cl)C(=O)c1cn(Cc2ccc(F)cc2)c2ccc(O)cc12 [AWD 12-281, N-(3,5-Dichloro-4-pyridinyl)-2-[1-(4-fluoro-benzyl)-5-hydroxy-1 H-indol-3-yl]-2-oxoacetamide]
TDI induced ear swelling ([1]; 1 and 5 h after challenge): no significant difference between the groups
TDI induced ear swelling ([1]; 5 h after challenge): slight inhibition
TDI induced ear swelling ([1]; 24 h after challenge): nearly abolished the TDI induced swelling; also recorded: inhibited the swelling significantly
release of inflammatory mediators such as GM-CSF, TNF-α and histamine [2]: inhibited the release of inflammatory mediators
degranulation of human eosinophils (human eosinophils): inhibited the degranulation
